According to patent publication US7727961B2, “Antioxidant constituents” (Tokai Bussan Co., Ltd., priority 2004, dated 2010):
Like-named read-outs stand apart in the source and are kept apart here.

Experiments:
[1] = Inhibition of ovalbumin (Ova) oxidative degradation by ClO radical; settings: for ClO radical inhibitory concentration: concentration that completely inhibits oxidative degradation of protein by 10 mM ClO•; for Inhibitory action toward proteolysis by ClO radical: Ova; for Inhibition effect on degradation of protein due to ClO radical: 30 min, pH 7.2; for Rank of ClO•-scavenging strength (in words): complete inhibition of protein degradation by 10 mM ClO•, comparison of Table 3
Protocol: (§1) ClO•, OH•, and NO3• were prepared as three typical active oxygen species produced in the body. Clo• was prepared using a method wherein sodium hypochlorite was diluted to a pH 6.5 with distilled water, OH• by a partially modified Fenton method (B. Halliwell, et al., Analytical Biochmistry, No. 165, p. 215-219, 1987), and NO3• by a modified quenching flow reactor method (R. Radi, et al., Journal of Biological Chemistry, Vol. 266, p. 4244-4250, 1991). Next, Ova was dissolved in pH 7.2 buffered physiological saline to a concentration of 2.5 mg/mL, each concentration of antioxidant was added at a volume ratio of 10:1 with respect to the protein solution, the solution was let stand for 30 min at room temperature, each concentration of active oxygen was added in the same manner at a volume ratio of 10:1 with respect to protein solution, and ClO• oxidation was performed for 30 min at 37° C., OH• oxidation for 60 min at 37° C., and NO3 oxidation for 120 min at 37° C. After the reaction, sodium dodecylsulfate-polyacrylamide gel electrophoresis (SDS-PAGE) was performed on each sample, the gel was stained with Coomassie blue R250, and the Ova degradation inhibition rate was calculated from the densitometer reading. An accurate degradation inhibition rate was calculated using the following formula from the proteolytic inhibition activity obtained by performing GPC-HPLC using a TSKG-3,000SW column directly on the reacted samples.
(§2) Using the same test methods as described in (1) above, a comparison of inhibitory activity by various natural extracts on the Ova degradation by active oxygen was performed. The concentrations of the natural extracts tested were 5 mg/mL as solids.
The strength of antioxidant activity between peptides with antioxidant activity and sulfur-containing amino acids was compared with respect to ClO•, and between various antioxidants with antioxidant activity with respect to OH•.

[2] = Inhibition of ovalbumin (Ova) oxidative degradation by ONOO radical; settings: for Inhibitory action toward proteolysis by ONOO radical: Ova; for Inhibition effect on degradation of protein due to ONOO radical: 120 min, pH 7.2; for Concentration that completely inhibited the oxidative effect of ONOO•: 5 mM ONOO•
Protocol: as §1, §2

[3] = Inhibition of ovalbumin (Ova) oxidative degradation by OH radical; settings: for Inhibitory action toward proteolysis by OH radical: Ova; for OH radical inhibitory concentration: concentration that completely inhibits the proteolytic action of 10 mM OH•; for Inhibition effect on degradation of protein due to OH radical: 60 min, pH 7.2
Protocol: as §1, §2

[4] = system: cholesterol in the blood; settings: known from the literature (Herrera-Arellano 2004; Kim 2003); cited from earlier work
[5] = system: human red blood cells; assay: Microchannel (MC) transit capability of human red blood cells damaged by active oxygen; assay type: cell-based
Protocol: A microchannel (hereinafter, MC), which is a capillary model, is a device that measures hemorheology, i.e., the capability of blood to circulate through capillaries. Factors affecting hemorheology include meals, oxidative stress, etc. In the present invention the effects of the three active oxygen species produced in the body on the MC transit capability of human red blood cells were tested, and the effectiveness of various antioxidants in preventing the harmful effects of active oxygen were compared.
Next, the effectiveness of various antioxidants in preventing the MC transit damage due to various active oxygen species was measured using red blood cells. […] (2.5 mM) as the ONOO•-scavenger were used. These three types were mixed together and used as the antioxidant mixture.
A microchannel (MC), which is a capillary model, is a device that measures hemorheology, i.e., the capability of blood to circulate through capillaries. Factors effecting hemorheology include meals, oxidative stress, etc. In the present Example, the effects of the three active oxygen species produced in the body on the MC transit capability of human red blood cells were tested.
For the test method, blood from healthy human volunteers was subjected a Ficoll-Pague centrifuge (made by Amersham-Pharmacia Biotech) to separate a red blood cell fraction, and the MC transit time of the red blood (final concentration of hematocrit is 10%) treated by various active oxygen species was measured by an MC FAN KH-3A (channel width 7 μm, MC Laboratory, Inc.).

[6] = system: glycated hemoglobin (HbAlc) in the blood; assay: Lowering of glycated hemoglobin in the blood of diabetic model GK rats; assay type: in vivo; settings: 100 mg/kg orally for 28 days, FIG. 5
Protocol: Using the diabetes model animal GK rats (Y. Ihara, et al. FEBS Letters, Vol. 473, p. 24-26, 2000), the effectiveness of single doses of various antioxidants and combined doses of antioxidants in lowering the level of glycated hemoglobin (HbAlc) in the blood was compared.
As the ClO•-scavenger 200 mg/kg of anserine-carnosine mixture derived from chicken extract, as the OH•-scavenger wheat grass extract (total content of caffeic acid analogues 10 mg/kg), as the ONOO•-scavenger 100 mg/kg of V.C., and a composition containing all three antioxidants were administered orally to the GK rats for 28 days, and the blood HbAlc levels were measured at the end of dosing.

[7] = antioxidant 20 μM, 10 mM ClO radical
[8] = antioxidant 20 μM, 10 mM OH radical
[9] = antioxidant 50 μM, 10 mM ClO radical
[10] = antioxidant 50 μM, 10 mM OH radical
[11] = antioxidant 5 mM, 10 mM ClO radical
[12] = antioxidant 5 mM, 10 mM OH radical

Molecule: Cn1cncc1C[C@H](NC(=O)CCN)C(=O)O [Anserine, anserine]
- ClO radical inhibitory concentration [1]: 5.0 mM

Molecule: CC1=C(/C=C/C(C)=C/C=C/C(C)=C/C=C/C=C(C)/C=C/C=C(C)/C=C/C2=C(C)C(=O)[C@@H](O)CC2(C)C)C(C)(C)C[C@H](O)C1=O [Astaxanthin, astaxanthin]
- Inhibitory action toward proteolysis by ONOO radical ([2]; antioxidant 20 μM): 28%
- Inhibitory action toward proteolysis by ClO radical [1, 7]: 24%
- Inhibitory action toward proteolysis by OH radical [3, 8]: 100%
- OH radical inhibitory concentration [3]: 0.5 µM

Molecule: CC1=C(/C=C/C(C)=C/C=C/C(C)=C/C=C/C=C(C)/C=C/C=C(C)/C=C/C2=C(C)CCCC2(C)C)C(C)(C)CCC1 [B-carotene, β-carotene]
- Concentration showing degradation inhibitory activity against ONOO• [2]: 10 µM
- Inhibitory action toward proteolysis by ONOO radical ([2]; antioxidant 20 μM): 74%
- Inhibitory action toward proteolysis by ClO radical [1, 7]: 38%
- Inhibitory action toward proteolysis by OH radical [3, 8]: 100%
- OH radical inhibitory concentration [3]: 0.5 µM

Molecule: O=C(O)/C=C/c1ccc(O)c(O)c1 [Caffeic acid, caffeic acid]
- OH radical inhibitory concentration [3]: 4.0 µM
- OH radical inhibitory concentration ([3]; listed as caffeic acid): 2.5 µM

Molecule: NCCC(=O)N[C@@H](Cc1cnc[nH]1)C(=O)O [Carnosine, carnosine]
- ClO radical inhibitory concentration [1]: 5.0 mM

Molecule: Oc1cc(O)c2c(c1)OC(c1ccc(O)c(O)c1)C(O)C2 (centres unmarked) [Catechins, catechins]
- Concentration showing degradation inhibitory activity against ONOO• [2]: 500 µM
- Inhibitory action toward proteolysis by ONOO radical ([2]; antioxidant 50 μM): 58%
- Inhibitory action toward proteolysis by ClO radical [1, 9]: 0%
- Inhibitory action toward proteolysis by OH radical [3, 10]: 100%
- OH radical inhibitory concentration [3]: 2.5 µM

Molecule: O=C(/C=C/c1ccc(O)c(O)c1)O[C@@H]1C[C@](O)(C(=O)O)C[C@@H](O)[C@H]1O [Chlorogenic acid, chlorogenic acid]
- Effect of lowering the level of cholesterol in the blood (in words) [4]: have an effect of lowering the level of cholesterol in the blood

Molecule: COC1=C(OC)C(=O)C(C/C=C(\C)CC/C=C(\C)CC/C=C(\C)CC/C=C(\C)CC/C=C(\C)CC/C=C(\C)CC/C=C(\C)CC/C=C(\C)CC/C=C(\C)CCC=C(C)C)=C(C)C1=O [CoQ10]
- Inhibition effect on degradation of protein due to ONOO radical ([2]; 50 μM): 0
- Inhibition of red blood cell MC transit damage due to OH• ([5]; hematocrit 10%, 10 mM OH radical, FIG. 10): inhibited the damage
- Inhibition effect on degradation of protein due to ClO radical ([1]; 50 μM): 0
- Inhibition effect on degradation of protein due to OH radical ([3]; 50 μM): 100

Molecule: N[C@@H](CS(=O)(=O)O)C(=O)O [Cysteic acid, cysteic acid]
- ClO radical inhibitory concentration [1]: 7.5 mM

Molecule: N[C@@H](CS)C(=O)O [Cysteine, L-cysteine]
- Inhibition effect on degradation of protein due to ONOO radical ([2]; 5 mM): 22
- Inhibition effect on degradation of protein due to ClO radical ([1]; 5 mM): 100
- Rank of ClO•-scavenging strength (in words) [1]: most potent
- ClO radical inhibitory concentration [1]: 2.5 mM
- Inhibition effect on degradation of protein due to OH radical ([3]; 5 mM): 15

Molecule: O=C(O[C@@H]1Cc2c(O)cc(O)cc2O[C@@H]1c1cc(O)c(O)c(O)c1)c1cc(O)c(O)c(O)c1 [Epigallocatechin gallate, epigallocatechin gallate]
- Concentration showing degradation inhibitory activity against ONOO• ([2]; FIG. 1, said to exceed physiologically relevant concentrations): 500 µM
- Inhibition of red blood cell MC transit damage due to OH• ([5]; antioxidant 50 μM, FIG. 4): completely inhibited
- Inhibition of Ova oxidative degradation by ClO• (in words) ([1]; FIG. 1, 10 mM ClO radical, β-carotene 20 μM, EGCG 500 μM): faint inhibitory activity
- Concentration at which oxidative degradation of Ova by OH• was completely inhibited ([3]; FIG. 1, 10 mM OH radical, tested concentration): 5 µM
- OH radical inhibitory concentration [3]: 2.5 µM

Molecule: COc1cc(/C=C/C(=O)O)ccc1O [Ferulic acid, ferulic acid]
- Inhibitory action toward proteolysis by ONOO radical ([2]; antioxidant 50 μM): 34%
- Inhibitory action toward proteolysis by ClO radical [1, 9]: 7%
- Effect of lowering the level of cholesterol in the blood (in words) [4]: have an effect of lowering the level of cholesterol in the blood
- Inhibitory action toward proteolysis by OH radical [3, 10]: 100%
- OH radical inhibitory concentration [3]: 2.5 µM

Molecule: CSCC[C@H](N)C(=O)O [Methionine, methionine]
- Inhibition effect on degradation of protein due to ONOO radical ([2]; 5 mM): 45
- Inhibition effect on degradation of protein due to ClO radical ([1]; 5 mM): 100
- ClO radical inhibitory concentration [1]: 5.0 mM
- Inhibition effect on degradation of protein due to OH radical ([3]; 5 mM): 62

Molecule: CC(=O)N[C@@H](CS)C(=O)O [N-acetyl-L-cysteine]
- Inhibition effect on degradation of protein due to ONOO radical ([2]; 5 mM): 20
- Inhibition effect on degradation of protein due to ClO radical ([1]; 5 mM): 100
- Rank of ClO•-scavenging strength (in words) [1]: most potent
- ClO radical inhibitory concentration [1]: 2.5 mM
- Inhibition effect on degradation of protein due to OH radical ([3]; 5 mM): 20

Molecule: O=c1c(O)c(-c2ccc(O)c(O)c2)oc2cc(O)cc(O)c12 [Quercetin, quercetin]
- Inhibitory action toward proteolysis by ONOO radical ([2]; antioxidant 50 μM): 16%
- Inhibitory action toward proteolysis by ClO radical [1, 9]: 5%
- Inhibitory action toward proteolysis by OH radical [3, 10]: 100%
- OH radical inhibitory concentration [3]: 2.5 µM

Molecule: N[C@@H](CCC(=O)N[C@@H](CS)C(=O)NCC(=O)O)C(=O)O [Reduced glutathione, reduced glutathione]
- Rank of ClO•-scavenging strength (in words) [1]: most potent
- ClO radical inhibitory concentration [1]: 2.5 mM

Molecule: O=C1O[C@H]([C@@H](O)CO)C(O)=C1O [Vitamin C, L-ascorbic acid]
- Decrease of blood HbAlc level [6]: 0.3%
- Concentration that completely inhibited the oxidative effect of ONOO• [2]: 1 mM
- Inhibitory action toward proteolysis by ONOO radical ([2]; antioxidant 5 mM): 100%
- Inhibition of red blood cell MC transit damage due to ONOO• ([5]; hematocrit 10%, 5 mM ONOO radical, FIG. 10): inhibited the damage
- Inhibitory action toward proteolysis by ClO radical [1, 11]: 67%
- Inhibitory action toward proteolysis by OH radical [3, 12]: 0%

Molecule: Cc1c(C)c2c(c(C)c1O)CC[C@@](C)(CCC[C@H](C)CCC[C@H](C)CCCC(C)C)O2 [Vitamin E, α-tocopherol]
- Inhibitory action toward proteolysis by ONOO radical ([2]; antioxidant 5 mM): 22%
- Inhibitory action toward proteolysis by ClO radical [1, 11]: 0%
- Inhibitory action toward proteolysis by OH radical [3, 12]: 98%
- Rank of OH•-scavenging strength (in words) ([3]; complete inhibition of proteolysis by 10 mM OH•, comparison of Table 4): weakest antioxidant activity
- OH radical inhibitory concentration [3]: 2500 µM
- Antioxidant activity against OH• (inhibition of proteolysis) relative to astaxanthin ([3]; fraction of the activity of the carotenoid astaxanthin): approximately 1/5000

Molecule: O=C1O[C@H]([C@@H](O)CO)C([O-])=C1O.[Na+] [sodium V.C.]
- Concentration that completely inhibited the oxidative effect of ONOO• [2]: 1 mM

Molecule: alliin
- ClO radical inhibitory concentration [1]: 7.5 mM
